This passage reports IC50, Km and Ki results from article PMC10989005, “Inter-phylum circulation of a beta-lactamase-encoding gene: a rare but observable event” (Antimicrobial Agents and Chemotherapy, 2024).

In one experiment the target is T1, MUN-1 beta-lactamase.
T1 construct: gene blaMUN-1; full gene cloned in pTOPO-kanR, expressed in E. coli TOP10, purified by ion exchange; no tag mentioned
Put plainly: beta-lactamase inhibition. The format is biochemical, Escherichia coli. The settings on record: covalent (known mechanism); reporter substrate and buffer only in supplement.
`NC(=O)[C@@H]1CC[C@@H]2CN1C(=O)N2OS(=O)(=O)O` [avibactam] displayed an IC50 of 3.8 nM.
Still for that read-out and setting: in the case of `O=C(O)[C@H]1/C(=C/CO)O[C@@H]2CC(=O)N21` [clavulanic acid] it was 0.32 nM.
Still for that read-out and setting: the same measure for `C[C@]1(Cn2ccnn2)[C@H](C(=O)O)N2C(=O)C[C@H]2S1(=O)=O` [tazobactam]: 0.8 nM.

The test system of the next experiment is T1, MUN-1 beta-lactamase. Kind of experiment: hydrolysis kinetics, purified beta-lactamase. The note with it: details in supplement; read-out: Kinetic measurement / Km. The format is biochemical, Escherichia coli. The source says:
hydrolysis kinetics, purified beta-lactamase on MUN-1 beta-lactamase
Regarding `CC1(C)S[C@@H]2[C@H](NC(=O)Cc3ccccc3)C(=O)N2[C@H]1C(=O)O` [Penicillin G], the Km is 95 µM.
On the same count and under the same terms, the same measure for `CC(=O)OCC1=C(C(=O)O)N2C(=O)[C@@H](NC(=O)Cc3cccs3)[C@H]2SC1` [Cephalothin]: 15 µM; for `CC1(C)S[C@@H]2[C@H](NC(=O)[C@H](N)c3ccccc3)C(=O)N2[C@H]1C(=O)O` [Ampicillin]: 280 µM; for `C[C@H]1[C@H](NC(=O)/C(=N\OC(C)(C)C(=O)O)c2csc(N)n2)C(=O)N1S(=O)(=O)O` [Aztreonam]: 45 µM.

Another experiment concerns the target T1, MUN-1 beta-lactamase. Put plainly: kinetic measurement, purified beta-lactamase. In kind it is biochemical, Escherichia coli. The settings on record: covalent (acylation without deacylation suggested); details in supplement. An excerpt: kinetic measurement, purified beta-lactamase on MUN-1 beta-lactamase
For the molecule `CCN1CCN(C(=O)N[C@@H](C(=O)N[C@@H]2C(=O)N3[C@@H]2SC(C)(C)[C@@H]3C(=O)O)c2ccccc2)C(=O)C1=O` [Piperacillin], the Ki came to 7.2 nM.
Still for that read-out and setting: in the case of `CC(C)(O/N=C(\C(=O)N[C@@H]1C(=O)N2C(C(=O)[O-])=C(C[n+]3ccccc3)CS[C@H]12)c1csc(N)n1)C(=O)O` [Ceftazidime] it was 580 nM.

Staying with this experiment, now noted: details in supplement.
`C[C@@H](O)[C@H]1C(=O)N2C(C(=O)O)=C(S[C@@H]3CN[C@H](C(=O)N(C)C)C3)[C@H](C)[C@H]12` [Meropenem]: the Ki was determined as 19 nM.
Same read-out and setting: in the case of `C[C@@H](O)[C@H]1C(=O)N2C(C(=O)O)=C(S[C@@H]3CN[C@H](C(=O)Nc4cccc(C(=O)O)c4)C3)[C@H](C)[C@H]12` [Ertapenem] it was 17 nM; in that of `C[C@@H](O)[C@H]1C(=O)N2C(C(=O)O)=C(SCCN=CN)C[C@H]12` [Imipenem], 1.3 nM; in that of `CC1(C)S[C@@H]2[C@H](NC(=O)[C@H](C(=O)O)c3ccsc3)C(=O)N2[C@H]1C(=O)O` [Ticarcillin], 3.6 nM.
